# According to PMC12947280, “An Antifungal with a Novel Mechanism of Action Discovered via Resistance Gene-Guided Genome Mining” (ACS Central Science, 2026):
# Where two headings read alike, the source gives them in different places.
# Experiments:
# Assay in all cases: Antifungal screening, broth microdilution MIC
# Type in all cases: cell-based
# [1] = test system: Scedosporium apiospermum ATCC MYA-3635; details: for MIC: Scedosporium apiospermum ATCC MYA-3635
# Description: (§1) Antifungal screening of 1
# (§2) Antifungal screening was performed by Micromyx, LLC (Kalamazoo, Michigan, USA). Test organisms were either reference strains from the American Type Culture Collection (ATCC; Manassas, VA), the Centers for Disease Control and Prevention (CDC; Atlanta, GA), or clinical isolates from the Micromyx (MMX) collection. Upon receipt at Micromyx, the isolates were streaked under suitable conditions onto agar medium appropriate to each organism. The yeast isolates were incubated for 24 hr at 35 °C and the fungi were incubated for 7 to 13 days at 35 °C, as appropriate. Colonies harvested from these growth plates were resuspended in the appropriate medium containing a cryoprotectant. Aliquots of each suspension were then frozen […]
# (§3) Prior to testing, the yeast isolates were streaked from frozen vials onto Sabouraud Dextrose Agar (SAB; Becton Dickenson [BD]/BBL; Sparks, MD, Lot No. 2228660) and were incubated at 35°C for 24 hr. Additional fungal isolates were streaked from frozen vials onto potato dextrose agar (BD/BBL; Sparks, MD, Lot No. 2046481) and incubated under optimal conditions for […]
# (§4) All MIC measurements were performed in RPMI1640 from Hyclone Laboratories (Logan, UT;
# (§5) Cat. No. SH3001104; Lot No. AC10257966A) buffered with MOPS to pH-7 from Millipore […]
# (§6) MIC values were determined using a broth microdilution procedure described by CLSI. 5,6.
# (§7) Automated liquid handlers (Multidrop 384, Labsystems, Helsinki, Finland; Biomek 3000 and […]
# (§8) Biomek FX, Beckman Coulter Fullerton CA) were used to conduct serial dilutions and liquid […]
# (§9) Solutions of 1 were added in an 11 point 2x serial dilution in DMSO with a maximum tested concentration of 32 μg/ml in the culture medium. Drug solution was added at 1% v/v into 200 μl […]
# (§10) A standardized inoculum of each test organism was prepared in appropriate media per CLSI methods.5,6 The plates were then inoculated with 10 µL of the diluted inoculum using the Biomek 3000 from low to high drug concentration, resulting in a final concentration of approximately 0.5 to 2.5 x 10^3 CFU/mL for yeast and 0.2 to 2.5 x 10^4 CFU/mL for the other fungi. An un-inoculated plate was incubated for the purpose of assessing solubility of the drug […]
# (§11) The plates were stacked 3 to 4 high, covered with a sterile lid on the top plate, and incubated aerobically at 35 °C for 24, 48, and 72 h. For yeast, both the MIC based on complete inhibition and 50% inhibition were reported at 24 and 48 h. For other fungal isolates, the MIC values were recorded at 24 and 48 hr and were based on complete inhibition and 50% inhibition.
# (§12) Intact protein LCMS analysis
# (§13) 10 μM of recombinant S. cerevisiae ALS was incubated with 10 μM compound 1 in buffer (50 mM Tris pH 7.5, 100 mM KCl, 10 uM FAD, 1 mM TPP, 10 mM MgCl2 (with 2.5% DMSO from compound)) at 22 °C for 30 min. Unreacted 1 was removed by passing the reaction mixture through a 30 kDa MWCO filter (Millipore). The collected protein was then denatured and reduced by incubation with 6 M urea and 10 mM DTT at 37 °C for 1 h followed by 20 mM iodoacetamide alkylation for 30 min in dark. This reaction mixture then underwent buffer exchange into 100 mM Tris-HCl pH 8.0 and 10 mM CaCl2 buffer using a 30 kDa MWCO filter.
# (§14) The protein was then incubated with sequencing grade chymotrypsin (Promega) (15:1,w/w) for […]
# (§15) After digestion, the peptide mixture was immediately analysed by LC-MS/MS using a Waters I-class UPLC equipped with an ACQUITY UPLC BEH C18 column (2.1x50 mm, 1.7 µm, Waters) at 50 °C coupled to a Waters Synapt G2Si MS. The sample was injected and subjected to an LC gradient starting from 0.5% mobile phase B (ACN with 0.1% formic acid) for 5 min with linear increase to 40% B over 35 min. Mobile phase A was 0.1% formic acid water. Flow rate was maintained at 0.3 ml/min. MS/MS data was acquired in positive ionization mode with data dependent MS/MS acquisition. Peptide mapping was performed with PEAKs Studio 8.0 (Bioinformatics Solutions Inc.) followed by manual review to identify peptides putatively modified by covalent addition of 1. […]
# [2] = test system: Rhizopus oryzae ATCC 11886; details: for MIC: Rhizopus arrhizus, ATCC11886, Rhizopus oryzae ATCC 11886
# Description: as §1, §2, §3, §4, §5, §6, §7, §8, §9, §10, §11, §12, §13, §14, §15
# [3] = test system: Mucor circinelloides ATCC 24905; details: for MIC: ATCC24905, Mucor circinelloides ATCC 24905
# Description: as §1, §2, §3, §4, §5, §6, §7, §8, §9, §10, §11, §12, §13, §14, §15
# [4] = test system: Aspergillus niger ATCC 9508; details: for MIC: ATCC9508, Aspergillus niger ATCC 9508
# Description: as §1, §2, §3, §4, §5, §6, §7, §8, §9, §10, §11, §12, §13, §14, §15
# [5] = test system: Scedosporium prolificans ATCC 11274; details: for MIC: Lomentospora prolificans, ATCC11274, Scedosporium prolificans ATCC 11274
# Description: as §1, §2, §3, §4, §5, §6, §7, §8, §9, §10, §11, §12, §13, §14, §15
# [6] = test system: Aspergillus flavus ATCC 204304; details: for MIC: ATCC204304, Aspergillus flavus ATCC 204304
# Description: as §1, §2, §3, §4, §5, §6, §7, §8, §9, §10, §11, §12, §13, §14, §15
# [7] = 24 hr, read-out: MIC 100% growth inhibition
# [8] = 24 hr, read-out: MIC >50% growth inhibition
# [9] = 48 hr, read-out: MIC 100% growth inhibition
# [10] = 48 hr, read-out: MIC >50% growth inhibition
compound,measurement,setting,value
CCCC1C(C)=CC2CC=CC3(C)C2C1C(=O)C31C(=O)NC(CCCO)C1=O (stereo not drawn) [compound 1],MIC,[1]; [7],8 µg/mL
same,MIC,[1]; [8],1 µg/mL
same,MIC,[1]; [9],> 32 µg/mL
same,MIC,[1]; [10],> 32 µg/mL
same,MIC (Table S5),"[1]; Scedosporium apiospermum, species summary",8
same,MIC,[2]; [7],1 µg/mL
same,MIC,[2]; [8],0.5 µg/mL
same,MIC,[2]; [9],16 µg/mL
same,MIC,[2]; [10],8 µg/mL
same,MIC (Table S5),"[2]; Rhizopus oryzae, species summary",1
same,MIC,[3]; [7],0.5 µg/mL
same,MIC,[3]; [8],0.12 µg/mL
same,MIC,[3]; [9],16 µg/mL
same,MIC,[3]; [10],4 µg/mL
same,MIC (Table S5),"[3]; Mucor circinelloides, species summary",0.5
same,MIC,[4]; [7],2 µg/mL
same,MIC,[4]; [8],1 µg/mL
same,MIC,[4]; [9],32 µg/mL
same,MIC,[4]; [10],8 µg/mL
same,MIC (Table S5),"[4]; Aspergillus niger, species summary",2
same,MIC,[5]; [7],8 µg/mL
same,MIC,[5]; [8],2 µg/mL
same,MIC,[5]; [9],> 32 µg/mL
same,MIC,[5]; [10],> 32 µg/mL
same,MIC (Table S5),"[5]; Scedosporium prolificans, species summary",8
same,MIC,[6]; [7],> 32 µg/mL
same,MIC,[6]; [8],> 32 µg/mL
same,MIC,[6]; [9],> 32 µg/mL
same,MIC,[6]; [10],> 32 µg/mL
same,MIC (Table S5),"[6]; Aspergillus flavus, species summary",> 32
